The source made the active and inactive calls. No cut-off for these calls is given here.
How the values were obtained:
PC-3 [1] = experiment: cells; conditions: Homo sapiens, PC-3, 72 h
Description: Cytotoxicity against human PC3 cells after 72 hrs by MTT assay

Bcap37 [2] = experiment: Cytotoxicity against human Bcap37 cells after 72 hrs by MTT assay; conditions: Bcap37, 72 h
MGC-803 [3] = experiment: cells; conditions: Homo sapiens, MGC-803, 72 h
Description: Cytotoxicity against human MGC803 cells after 72 hrs by MTT assay

MGC-803 [4] = experiment: Induction of apoptosis in human MGC803 cells assessed as early and late apoptosis ratio at 5 uM after 6 hrs by annxinV-FITC/propidium iodide staining-based flow cytometry; type: functional
MGC-803 [5] = experiment: Induction of apoptosis in human MGC803 cells assessed as DNA fragmentation at 10 uM after 12 hrs by EB staining-based agarose gel electrophoresis relative to control; type: functional, cell-based
MGC-803 [6] = experiment: Induction of apoptosis in human MGC803 cells assessed as smaller nuclei at 10 uM after 12 hrs by Hoechst 33258 staining-based fluorescence microscopic analysis; type: functional, cell-based
MGC-803 [7] = experiment: Induction of apoptosis in human MGC803 cells assessed as chromatin condensation at 10 uM after 12 hrs by Hoechst 33258 staining-based fluorescence microscopic analysis; type: functional, cell-based
PC-3 [8] = experiment: Induction of apoptosis in human PC3 cells assessed as smaller nuclei at 10 uM after 12 hrs by Hoechst 33258 staining-based fluorescence microscopic analysis; type: functional, cell-based
MGC-803 [9] = experiment: Induction of apoptosis in human MGC803 cells assessed as early and late apoptosis ratio at 10 uM after 12 hrs by annxinV-FITC/propidium iodide staining-based flow cytometry; type: functional
MGC-803 [10] = experiment: Induction of apoptosis in human MGC803 cells assessed as early and late apoptosis ratio at 1 uM after 12 hrs by annxinV-FITC/propidium iodide staining-based flow cytometry; type: functional
MGC-803 [11] = experiment: Induction of apoptosis in human MGC803 cells assessed as early and late apoptosis ratio at 10 uM after 6 hrs by annxinV-FITC/propidium iodide staining-based flow cytometry; type: functional
MGC-803 [12] = experiment: Induction of apoptosis in human MGC803 cells assessed as early and late apoptosis ratio at 1 uM after 6 hrs by annxinV-FITC/propidium iodide staining-based flow cytometry; type: functional
MGC-803 [13] = experiment: Induction of apoptosis in human MGC803 cells assessed as early and late apoptosis ratio at 1 uM after 24 hrs by annxinV-FITC/propidium iodide staining-based flow cytometry; type: functional
MGC-803 [14] = experiment: Induction of apoptosis in human MGC803 cells assessed as early and late apoptosis ratio at 5 uM after 24 hrs by annxinV-FITC/propidium iodide staining-based flow cytometry; type: functional
Bcap37 [15] = experiment: Induction of apoptosis in human Bcap37 cells assessed as chromatin condensation at 10 uM after 12 hrs by Hoechst 33258 staining-based fluorescence microscopic analysis; type: functional, cell-based
MGC-803 [16] = experiment: Induction of apoptosis in human MGC803 cells assessed as early and late apoptosis ratio at 10 uM after 24 hrs by annxinV-FITC/propidium iodide staining-based flow cytometry; type: functional
PC-3 [17] = experiment: Induction of apoptosis in human PC3 cells assessed as chromatin condensation at 10 uM after 12 hrs by Hoechst 33258 staining-based fluorescence microscopic analysis; type: functional, cell-based
Bcap37 [18] = experiment: Induction of apoptosis in human Bcap37 cells assessed as smaller nuclei at 10 uM after 12 hrs by Hoechst 33258 staining-based fluorescence microscopic analysis; type: functional, cell-based
MGC-803 [19] = experiment: Induction of apoptosis in human MGC803 cells assessed as early and late apoptosis ratio at 5 uM after 12 hrs by annxinV-FITC/propidium iodide staining-based flow cytometry; type: functional
[20] = Selectivity index, ratio of IC50 for mouse NIH3T3 cells to IC50 for human Bcap37 cells; type: functional
[21] = Selectivity index, ratio of IC50 for mouse NIH3T3 cells to IC50 for human PC3 cells; type: functional
[22] = Selectivity index, ratio of IC50 for mouse NIH3T3 cells to IC50 for human MGC803 cells; type: functional
Bcap37 [23] = experiment: Induction of apoptosis in human Bcap37 cells assessed as pyknotic nuclei at 5 uM after 12 hrs by Hoechst 33258 staining-based fluorescence microscopic analysis; type: functional, cell-based
PC-3 [24] = experiment: Induction of apoptosis in human PC3 cells assessed as early and late apoptic cells at 5 uM after 12 hrs by AO/EB staining-based fluorescence microscopic analysis; type: functional, cell-based
MGC-803 [25] = experiment: Induction of apoptosis in human MGC803 cells assessed as early and late apoptosis ratio at 1 to 10 uM by annxinV-FITC/propidium iodide staining-based flow cytometry; type: functional, cell-based; conditions: TDE = time-dependent effect
Bcap37 [26] = experiment: Induction of apoptosis in human Bcap37 cells assessed as chromatin condensation at 5 uM after 12 hrs by Hoechst 33258 staining-based fluorescence microscopic analysis; type: functional, cell-based
MGC-803 [27] = experiment: Induction of apoptosis in human MGC803 cells assessed as DNA fragmentation at 5 uM after 12 hrs by EB staining-based agarose gel electrophoresis relative to control; type: functional, cell-based
MGC-803 [28] = experiment: Induction of apoptosis in human MGC803 cells assessed as necrotic cells at 5 uM after 12 hrs by AO/EB staining-based fluorescence microscopic analysis; type: functional, cell-based
MGC-803 [29] = experiment: Induction of apoptosis in human MGC803 cells assessed as chromatin condensation at 5 uM after 12 hrs by Hoechst 33258 staining-based fluorescence microscopic analysis; type: functional, cell-based
Bcap37 [30] = experiment: Induction of apoptosis in human Bcap37 cells assessed as necrotic cells at 5 uM after 12 hrs by AO/EB staining-based fluorescence microscopic analysis; type: functional, cell-based
MGC-803 [31] = experiment: Induction of apoptosis in human MGC803 cells assessed as early and late apoptic cells at 5 uM after 12 hrs by AO/EB staining-based fluorescence microscopic analysis; type: functional, cell-based
PC-3 [32] = experiment: Induction of apoptosis in human PC3 cells assessed as chromatin condensation at 5 uM after 12 hrs by Hoechst 33258 staining-based fluorescence microscopic analysis; type: functional, cell-based
PC-3 [33] = experiment: Induction of apoptosis in human PC3 cells assessed as pyknotic nuclei at 5 uM after 12 hrs by Hoechst 33258 staining-based fluorescence microscopic analysis; type: functional, cell-based
MGC-803 [34] = experiment: Induction of apoptosis in human MGC803 cells assessed as pyknotic nuclei at 5 uM after 12 hrs by Hoechst 33258 staining-based fluorescence microscopic analysis; type: functional, cell-based
PC-3 [35] = experiment: Induction of apoptosis in human PC3 cells assessed as necrotic cells at 5 uM after 12 hrs by AO/EB staining-based fluorescence microscopic analysis; type: functional, cell-based
Bcap37 [36] = experiment: Induction of apoptosis in human Bcap37 cells assessed as early and late apoptic cells at 5 uM after 12 hrs by AO/EB staining-based fluorescence microscopic analysis; type: functional, cell-based

Compound: COc1ccccc1/C=C/C(=O)/C=C/c1ccc(Oc2ncnc3c(C)cccc23)cc1
- IC50 (PC-3 [1]): 5.17 µM
- IC50 (Bcap37 [2]): 9.26 µM
- IC50 (MGC-803 [3]): 3.76 µM

Compound: Cc1cccc2c(Oc3ccc(/C=C/C(=O)/C=C/c4cc([N+](=O)[O-])ccc4Cl)cc3)ncnc12
- IC50 (PC-3 [1]): 2.79 µM
- IC50 (Bcap37 [2]): 7.89 µM
- IC50 (MGC-803 [3]): 1.86 µM

Compound: Cc1nn(C)c(Cl)c1/C=C/C(=O)/C=C/c1ccc(Oc2ncnc3ccccc23)cc1
- IC50 (PC-3 [1]): 11.5 µM
- IC50 (Bcap37 [2]): 18.9 µM
- IC50 (MGC-803 [3]): 9.31 µM

Compound: COc1ccc(OC)c(/C=C/C(=O)/C=C/c2ccc(Oc3ncnc4c(C)cccc34)cc2)c1
- IC50 (PC-3 [1]): 4.71 µM
- IC50 (Bcap37 [2]): 8.17 µM
- IC50 (MGC-803 [3]): 2.32 µM

Compound: Cc1cccc2c(Oc3ccc(/C=C/C(=O)/C=C/c4ccc(Cl)cc4)cc3)ncnc12
- IC50 (PC-3 [1]): 8.79 µM
- IC50 (Bcap37 [2]): 12.3 µM
- IC50 (MGC-803 [3]): 8.1 µM

Compound: O=C(/C=C/c1ccc(Cl)cc1)/C=C/c1ccc(Oc2ncnc3ccccc23)cc1
- IC50 (PC-3 [1]): 7.35 µM
- IC50 (Bcap37 [2]): 11.3 µM
- IC50 (MGC-803 [3]): 4.84 µM

Compound: CC[C@@]1(O)C(=O)OCc2c1cc1n(c2=O)Cc2cc3cc(O)ccc3nc2-1 [HYDROXYCAMPTOTHECIN]
- Activity (MGC-803 [4]): 1.8%
- Activity (MGC-803 [5]): Active
- Activity (MGC-803 [6]): Active
- Activity (MGC-803 [7]): Active
- Activity (PC-3 [8]): Active
- Activity (MGC-803 [9]): 8.6%
- Activity (MGC-803 [10]): 2%
- Activity (MGC-803 [11]): 3%
- Activity (MGC-803 [12]): 1.2%
- Activity (MGC-803 [13]): 4.7%
- Activity (MGC-803 [14]): 7.6%
- Activity (Bcap37 [15]): Active
- Activity (MGC-803 [16]): 24.5%
- Activity (PC-3 [17]): Active
- Activity (Bcap37 [18]): Active
- Activity (MGC-803 [19]): 5.8%

Compound: O=C(/C=C/c1ccc(F)cc1)/C=C/c1ccc(Oc2ncnc3ccccc23)cc1
- IC50 (PC-3 [1]): 5.62 µM
- IC50 (Bcap37 [2]): 8.53 µM
- IC50 (MGC-803 [3]): 3.84 µM

Compound: COc1ccc(OC)c(/C=C/C(=O)/C=C/c2ccc(Oc3ncnc4ccccc34)cc2)c1
- Ratio IC50 [20]: <2
- IC50 (PC-3 [1]): 2.96 µM
- IC50 (Bcap37 [2]): 7.81 µM
- Ratio IC50 [21]: 4.46
- IC50 (MGC-803 [3]): 2.01 µM
- Ratio IC50 [22]: 6.57

Compound: CC(=O)/C=C/c1ccc(Oc2ncnc3c(C)cccc23)cc1
- IC50 (PC-3 [1]): 25.8 µM
- IC50 (Bcap37 [2]): 30.3 µM
- IC50 (MGC-803 [3]): 19.9 µM

Compound: COc1ccccc1/C=C/C(=O)/C=C/c1ccc(Oc2ncnc3ccccc23)cc1
- Ratio IC50 [20]: <2
- IC50 (PC-3 [1]): 3.66 µM
- IC50 (Bcap37 [2]): 7.82 µM
- Ratio IC50 [21]: 3.4
- IC50 (MGC-803 [3]): 2.03 µM
- Ratio IC50 [22]: 6.13

Compound: Cc1cccc2c(Oc3ccc(/C=C/C(=O)/C=C/c4ccc(F)cc4)cc3)ncnc12
- IC50 (PC-3 [1]): 7.36 µM
- IC50 (Bcap37 [2]): 9.25 µM
- IC50 (MGC-803 [3]): 4.36 µM

Compound: COc1cccc2c1C(=O)c1c(O)c3c(c(O)c1C2=O)C[C@@](O)(C(=O)CO)C[C@@H]3O[C@H]1C[C@H](N)[C@H](O)[C@H](C)O1 [DOXORUBICIN]
- Ratio IC50 [20]: <2
- IC50 (PC-3 [1]): 1.01 µM
- IC50 (Bcap37 [2]): 1.9 µM
- Ratio IC50 [21]: <2
- IC50 (MGC-803 [3]): 0.74 µM
- Ratio IC50 [22]: <2

Compound: CC(=O)/C=C/c1ccc(Oc2ncnc3ccccc23)cc1
- IC50 (PC-3 [1]): 21.3 µM
- IC50 (Bcap37 [2]): 28.9 µM
- IC50 (MGC-803 [3]): 18.4 µM

Compound: O=C(/C=C/c1ccc(Oc2ncnc3ccccc23)cc1)/C=C/c1ccc(Cl)cc1Cl
- IC50 (PC-3 [1]): 4.57 µM
- IC50 (Bcap37 [2]): 10.8 µM
- IC50 (MGC-803 [3]): 2.77 µM

Compound: Cc1cccc2c(Oc3ccc(/C=C/C(=O)/C=C/c4ccc(Cl)cc4Cl)cc3)ncnc12
- IC50 (PC-3 [1]): 15.2 µM
- IC50 (Bcap37 [2]): 32.8 µM
- IC50 (MGC-803 [3]): 5.13 µM

Compound: Cc1nn(C)c(Cl)c1/C=C/C(=O)/C=C/c1ccc(Oc2ncnc3c(C)cccc23)cc1
- IC50 (PC-3 [1]): 16.4 µM
- IC50 (Bcap37 [2]): 21.3 µM
- IC50 (MGC-803 [3]): 11.6 µM

Compound: O=C(/C=C/c1ccc(Oc2ncnc3ccccc23)cc1)/C=C/c1cc([N+](=O)[O-])ccc1Cl
- Activity (MGC-803 [4]): 4.1%
- Activity (Bcap37 [23]): Active
- Activity (PC-3 [24]): Active
- Activity (MGC-803 [9]): 10.5%
- Activity (MGC-803 [10]): 2.8%
- Activity (MGC-803 [11]): 6.4%
- Activity (MGC-803 [12]): 2.4%
- Activity (MGC-803 [25]): tde
- Ratio IC50 [20]: 5.72
- Activity (Bcap37 [26]): Active
- Activity (MGC-803 [27]): Active
- IC50 (PC-3 [1]): 1.34 µM
- Activity (MGC-803 [28]): Active
- IC50 (Bcap37 [2]): 3.9 µM
- Activity (MGC-803 [13]): 5.3%
- Activity (MGC-803 [29]): Active
- Activity (MGC-803 [14]): 8.9%
- Activity (Bcap37 [30]): Active
- Activity (MGC-803 [31]): Active
- Activity (PC-3 [32]): Active
- Ratio IC50 [21]: >8
- Activity (PC-3 [33]): Active
- IC50 (MGC-803 [3]): 0.86 µM
- Activity (MGC-803 [16]): 27.1%
- Ratio IC50 [22]: >8
- Activity (MGC-803 [34]): Active
- Activity (PC-3 [35]): Active
- Activity (Bcap37 [36]): Active
- Activity (MGC-803 [19]): 6.2%

— ChEMBL document CHEMBL2429743, “Synthesis and antitumor properties of novel curcumin analogs” (Med Chem Res, 2013)
